Tested on: Aβ40
Test: First-in-human study: Aβ40 in CSF
Type: in vivo
Conditions: for Aβ40 % change from baseline, Mean (SD) / Aβ40 % change from baseline, Median: CSF, 2 weeks; for lowering of CSF Aβ40 concentrations, up to: healthy elderly subjects
Method: The purpose of this study was to determine the single and multiple maximum tolerated dose of Compound 1 and to assess the pharmacokinetic/pharmacodynamic (PK/PD) relationship using Aβ in CSF as primary PD biomarker.
Pharmacodynamic assessments using Aβ concentrations in CSF as primary biomarker of drug action were also been applied in healthy elderly subjects. Dose-dependent lowering of Aβ40 concentrations was determined up to approximately 80% and 90% after single and multiple dosing, respectively (Tables 14 and 15, FIG. 9).
In the completed first-in-human and 3-month dose-ranging safety and tolerability clinical studies described in Examples 5 and 6, Aβ concentrations in CSF were obtained by means of lumbar punctures before the first dose (baseline) and respectively after 2 weeks and 3 months of multiple dosing. ApoE4 genotype also was obtained in the subjects who consented. The percent change from baseline in Aβ40 and Aβ42 concentrations was calculated in subjects who took the study treatment and had no major protocol deviation with potential impact on the evaluation of the pharmacodynamic effect. Tables 18 to 21 below provide summary statistics of the percent change from baseline by treatment group and ApoE genotype (E4 heterozygotes versus E4 non-carriers). Only one subject with CSF data was E4 homozygote (from the 3-month dose-ranging safety and tolerability study).

[1] = multiple-dose 10 mg, Day 15 (24 h post last dose)
[2] = multiple-dose 30 mg, Day 15 (24 h post last dose)
[3] = multiple-dose 90 mg, Day 15 (24 h post last dose)
[4] = multiple-dose 300 mg, Day 15 (24 h post last dose)

## C[C@@]1(c2nc(NC(=O)c3ncc(C(F)(F)F)cc3Cl)ccc2F)CO[C@@](C)(C(F)(F)F)C(N)=N1 [Compound 1, N-(6-((3R,6R)-5-amino-3,6-dimethyl-6-(trifluoromethyl)-3,6-dihydro-2H-1,4-oxazin-3-yl)-5-fluoropyridin-2-yl)-3-chloro-5-(trifluoromethyl)picolinamide]
10 mg, E4 heterozygotes
  Aβ40 % change from baseline, Mean (SD): −56 (10) %
  Aβ40 % change from baseline, Median: −53%
10 mg, E4 non-carriers
  Aβ40 % change from baseline, Mean (SD): −59 (7) %
  Aβ40 % change from baseline, Median: −61%
30 mg, E4 non-carriers
  Aβ40 % change from baseline, Mean (SD): −80 (4) %
  Aβ40 % change from baseline, Median: −81%
90 mg, E4 heterozygotes
  Aβ40 % change from baseline, Mean (SD): −90 (2) %
  Aβ40 % change from baseline, Median: −90%
90 mg, E4 non-carriers
  Aβ40 % change from baseline, Mean (SD): −89 (2) %
  Aβ40 % change from baseline, Median: −90%
300 mg, E4 heterozygotes (n 1)
  Aβ40 % change from baseline, Mean (SD): −93%
  Aβ40 % change from baseline, Median: −93%
300 mg, E4 non-carriers
  Aβ40 % change from baseline, Mean (SD): −94 (1) %
  Aβ40 % change from baseline, Median: −94%
Multiple dosing
  lowering of CSF Aβ40 concentrations, up to: ~90%
Single dosing
  lowering of CSF Aβ40 concentrations, up to: approximately 80%
[1]
  Aβ40 in CSF percent change from baseline, Mean (SD): −60.1 (9.91) %
  Aβ40 in CSF percent change from baseline, Median: −61.5%
[2]
  Aβ40 in CSF percent change from baseline, Mean (SD): −80.0 (3.89) %
  Aβ40 in CSF percent change from baseline, Median: −80.2%
[3]
  Aβ40 in CSF percent change from baseline, Mean (SD): −88.2 (3.07) %
  Aβ40 in CSF percent change from baseline, Median: −89.1%
[4]
  Aβ40 in CSF percent change from baseline, Mean (SD): −93.6 (0.61) %
  Aβ40 in CSF percent change from baseline, Median: −93.5%
single-dose 10 mg, 12 h
  Aβ40 in CSF percent change from baseline, Mean (SD): −11.6 (8.31) %
  Aβ40 in CSF percent change from baseline, Median: −12.5%
  Aβ40 in CSF percent change from baseline, Min-Max: −21-1%
single-dose 10 mg, 24 h
  Aβ40 in CSF percent change from baseline, Mean (SD): −15.0 (10.21) %
  Aβ40 in CSF percent change from baseline, Median: −14.3%
  Aβ40 in CSF percent change from baseline, Min-Max: −31-−4%
single-dose 10 mg, 34 h
  Aβ40 in CSF percent change from baseline, Mean (SD): −9.7 (14.72) %
  Aβ40 in CSF percent change from baseline, Median: −12.5%
  Aβ40 in CSF percent change from baseline, Min-Max: −25-10%
single-dose 90 mg, 12 h
  Aβ40 in CSF percent change from baseline, Mean (SD): −14.2 (35.83) %
  Aβ40 in CSF percent change from baseline, Median: −28.0%
  Aβ40 in CSF percent change from baseline, Min-Max: −36-58%
single-dose 90 mg, 24 h
  Aβ40 in CSF percent change from baseline, Mean (SD): −44.8 (12.48) %
  Aβ40 in CSF percent change from baseline, Median: −49.2%
  Aβ40 in CSF percent change from baseline, Min-Max: −55-−25%
single-dose 90 mg, 34 h
  Aβ40 in CSF percent change from baseline, Mean (SD): −50.0 (8.87) %
  Aβ40 in CSF percent change from baseline, Median: −45.4%
  Aβ40 in CSF percent change from baseline, Min-Max: −60-−41%
single-dose 300 mg, 12 h
  Aβ40 in CSF percent change from baseline, Mean (SD): −35.8 (16.40) %
  Aβ40 in CSF percent change from baseline, Median: −44.1%
  Aβ40 in CSF percent change from baseline, Min-Max: −54-−13%
single-dose 300 mg, 24 h
  Aβ40 in CSF percent change from baseline, Mean (SD): −68.3 (10.65) %
  Aβ40 in CSF percent change from baseline, Median: −72.5%
  Aβ40 in CSF percent change from baseline, Min-Max: −79-−52%
single-dose 300 mg, 34 h
  Aβ40 in CSF percent change from baseline, Mean (SD): −78.3 (4.75) %
  Aβ40 in CSF percent change from baseline, Median: −79.3%
